# From US20070128217A1 (priority 2003, published 2007)
# How the values were obtained:
# [1] = test system: rabbit serum obtained by immunizing a rabbit with the SARS-CoV strain Frankfurt 1; assay type: binding; set-up: Binding of a rabbit serum to linear peptides / Binding of a rabbit serum to looped peptides / Rabbit serum linear peptides / Rabbit serum looped peptides / Binding of a rabbit serum to linear peptides of protein N of SARS-CoV Urbani (Rabbit serum linear peptides) / Binding of a rabbit serum to looped/cyclic peptides of protein N of SARS-CoV Urbani (Rabbit serum looped peptides): unit not given here
# [2] = test system: antibodies in sera from SARS patients (sera 1a, 1b, 2, 6, 37, 62, London, SARS-yellow, SARS-green); assay type: binding, human; set-up: Binding of serum 6 to linear peptides of protein X1 of SARS-CoV Urbani / Binding of serum 37 to linear peptides of protein X1 of SARS-CoV Urbani / Binding of serum 6 to looped/cyclic peptide (PEPSCAN-ELISA) / Binding of serum 37 to looped/cyclic peptide (PEPSCAN-ELISA) / Binding of serum 37 to looped/cyclic peptides of protein X1 of SARS-CoV Urbani / Binding of serum 6 to linear peptides of protein X2 / Binding of serum 37 to linear peptides of protein X2 / Binding of serum 37 to looped/cyclic peptides of protein X2 of SARS-CoV Urbani / Binding of serum 6 to linear peptides of protein M of SARS-CoV Urbani / Binding of serum 37 to linear peptides of protein M of SARS-CoV Urbani / Binding of serum 6 to looped/cyclic peptides of protein M of SARS-CoV Urbani / Binding of serum 37 to looped/cyclic peptides of protein M of SARS-CoV Urbani / Binding of serum 6 to linear peptides of protein X3 of SARS-CoV Urbani / Binding of serum 37 to linear peptides of protein X3 of SARS-CoV Urbani / Binding of serum 37 to looped/cyclic peptides of protein X3 of SARS-CoV Urbani / Binding of serum 6 to linear peptides of protein X4 of SARS-CoV Urbani / Binding of serum 37 to linear peptides of protein X4 of SARS-CoV Urbani / Binding of serum 37 to looped/cyclic peptides of protein X4 of SARS-CoV Urbani / Binding of serum 6 to linear peptides of protein X5 of SARS-CoV Urbani / Binding of serum 37 to linear peptides of protein X5 of SARS-CoV Urbani / Binding of serum 37 to looped/cyclic peptides of protein X5 of SARS-CoV Urbani / Binding of serum 6 to linear peptides of protein N of SARS-CoV Urbani / Binding of serum 37 to linear peptides of protein N of SARS-CoV Urbani / Binding of serum 6 to linear peptide (PEPSCAN-ELISA) / Binding of serum 1a to looped/cyclic peptides of protein N of SARS-CoV Urbani / Binding of serum 1b to looped/cyclic peptides of protein N of SARS-CoV Urbani / Binding of serum 2 to looped/cyclic peptides of protein N of SARS-CoV Urbani / Binding of serum 6 to looped/cyclic peptides of protein N of SARS-CoV Urbani / Binding of serum 37 to looped/cyclic peptides of protein N of SARS-CoV Urbani / Binding of serum 62 to looped/cyclic peptides of protein N of SARS-CoV Urbani / Binding of serum London to looped/cyclic peptides of protein N of SARS-CoV Urbani / Binding of serum SARS-green to looped/cyclic peptides of protein N of SARS-CoV Urbani: unit not given here
# [3] = test system: control sera (pooled serum of ten healthy LUMC hospital workers; commercial negative donor pooled serum from the Dutch bloodbank); assay type: binding, human; set-up: Binding of Control serum LUMC to linear peptides / Binding of Control serum Blood-bank to linear peptides / Binding of Control serum LUMC to looped peptides / Binding of Control Serum Blood-Bank to Looped peptides / Binding of Control serum LUMC to linear peptides of the protein M of SARS-CoV Urbani / Binding of Control serum Blood-bank to linear peptides of the protein M of SARS-CoV Urbani / Binding of Control serum LUMC to looped peptides of the protein M of SARS-CoV Urbani / Binding of Control Serum Blood-Bank to Looped peptides of the protein M of SARS-CoV Urbani: unit not given here
sequence,measurement,setting,value
ARCWYLHEGHQTAAF,Rabbit serum linear peptides,[1],0.3
same,Rabbit serum looped peptides,[1],0.6
AVIIRGHLRMAGHPL,Rabbit serum linear peptides,[1],0.3
same,Rabbit serum looped peptides,[1],0.6
DNASPASTVHATATI,Binding of a rabbit serum to linear peptides,[1],0.7
same,Binding of a rabbit serum to looped peptides,[1],0.3
EELKQLLEQWNLVIG,Rabbit serum linear peptides,[1],0.4
same,Rabbit serum looped peptides,[1],0.4
EGNSPFHPLADNKFA,Rabbit serum linear peptides,[1],0.7
same,Rabbit serum looped peptides,[1],0.7
FAGTHITMTTVYHIT,Binding of a rabbit serum to linear peptides,[1],0.6
same,Binding of a rabbit serum to looped peptides,[1],0.4
FICNLLLLFVTIYSH,Binding of a rabbit serum to linear peptides,[1],0.1
same,Binding of a rabbit serum to looped peptides,[1],0.5
same,Binding of serum 1a to linear peptides of protein X1 of SARS-CoV Urbani,[2],0.6
same,Binding of serum 1a to looped/cyclic peptide (PEPSCAN-ELISA),[2],0.5
same,Binding of serum 1b to linear peptides of protein X1 of SARS-CoV Urbani,[2],0.6
same,Binding of serum 1b to looped/cyclic peptide (PEPSCAN-ELISA),[2],0.3
same,Binding of serum 2 to linear peptides of protein X1 of SARS-CoV Urbani,[2],0.6
same,Binding of serum 2 to looped/cyclic peptide (PEPSCAN-ELISA),[2],0.4
same,Binding of serum 6 to linear peptides of protein X1 of SARS-CoV Urbani,[2],0.4
same,Binding of serum 6 to looped/cyclic peptide (PEPSCAN-ELISA),[2],0.2
same,Binding of serum 37 to linear peptides of protein X1 of SARS-CoV Urbani,[2],0.5
same,Binding of serum 37 to looped/cyclic peptide (PEPSCAN-ELISA),[2],0.5
same,Binding of serum 62 to linear peptides of protein X1 of SARS-CoV Urbani,[2],0.5
same,Binding of serum 62 to looped/cyclic peptide (PEPSCAN-ELISA),[2],0.5
same,Binding of serum London to linear peptides of protein X1 of SARS-CoV Urbani,[2],0.3
same,Binding of serum London to looped/cyclic peptide (PEPSCAN-ELISA),[2],0.2
same,Binding of serum SARS-green to linear peptides of protein X1 of SARS-CoV Urbani,[2],0.2
same,Binding of serum SARS-green to looped/cyclic peptide (PEPSCAN-ELISA),[2],0.3
same,Binding of serum SARS-yellow to linear peptides of protein X1 of SARS-CoV Urbani,[2],0.4
same,Binding of serum SARS-yellow to looped/cyclic peptide (PEPSCAN-ELISA),[2],0.5
GAVIIRGHLRMAGHP,Rabbit serum linear peptides,[1],0.8
same,Rabbit serum looped peptides,[1],0.5
GFQFIGNLLLLFVTI,Binding of a rabbit serum to linear peptides,[1],0.9
same,Binding of a rabbit serum to looped peptides,[1],0.5
GTITVEELKQLLEQW,Recognition of the peptide by the rabbit serum,[1],recognized
HLRMAGHPLGRCDIK,Rabbit serum linear peptides,[1],0.0
same,Rabbit serum looped peptides,[1],0.5
HRWHTMVQTCTPNVT,Rabbit serum linear peptides,[1],0.7
same,Rabbit serum looped peptides,[1],0.3
same,Binding of serum 1a to linear peptides of protein X5 of SARS-CoV Urbani,[2],0.7
same,Binding of serum 1a to looped/cyclic peptides of protein X5 of SARS-CoV Urbani,[2],0.6
same,Binding of serum 1b to linear peptides of protein X5 of SARS-CoV Urbani,[2],0.6
same,Binding of serum 1b to looped/cyclic peptides of protein X5 of SARS-CoV Urbani,[2],0.5
same,Binding of serum 2 to linear peptides of protein X5 of SARS-CoV Urbani,[2],0.8
same,Binding of serum 2 to looped/cyclic peptides of protein X5 of SARS-CoV Urbani,[2],0.5
same,Binding of serum 6 to linear peptides of protein X5 of SARS-CoV Urbani,[2],0.5
same,Binding of serum 6 to looped/cyclic peptides of protein X5 of SARS-CoV Urbani,[2],0.3
same,Binding of serum 37 to linear peptides of protein X5 of SARS-CoV Urbani,[2],0.7
same,Binding of serum 37 to looped/cyclic peptides of protein X5 of SARS-CoV Urbani,[2],0.3
same,Binding of serum 62 to linear peptides of protein X5 of SARS-CoV Urbani,[2],0.8
same,Binding of serum 62 to looped/cyclic peptides of protein X5 of SARS-CoV Urbani,[2],0.3
same,Binding of serum London to linear peptides of protein X5 of SARS-CoV Urbani,[2],0.7
same,Binding of serum London to looped/cyclic peptides of protein X5 of SARS-CoV Urbani,[2],0.1
same,Binding of serum SARS-green to linear peptides of protein X5 of SARS-CoV Urbani,[2],0.5
same,Binding of serum SARS-green to looped/cyclic peptides of protein X5 of SARS-CoV Urbani,[2],0.3
same,Binding of serum SARS-yellow to linear peptides of protein X5 of SARS-CoV Urbani,[2],0.5
same,Binding of serum SARS-yellow to looped/cyclic peptides of protein X5 of SARS-CoV Urbani,[2],0.2
IANACIVGLMWLSYF,Rabbit serum linear peptides,[1],0.1
same,Rabbit serum looped peptides,[1],0.0
IGAVIIRGHLRMAGH,Rabbit serum linear peptides,[1],0.3
same,Rabbit serum looped peptides,[1],0.8
IMRCWLCWKCKSKNP,Binding of serum 1a to looped/cyclic peptide (PEPSCAN-ELISA),[2],0.3
same,Binding of serum 1b to looped/cyclic peptide (PEPSCAN-ELISA),[2],0.1
same,Binding of serum 2 to looped/cyclic peptide (PEPSCAN-ELISA),[2],0.1
same,Binding of serum 6 to looped/cyclic peptide (PEPSCAN-ELISA),[2],0.2
same,Binding of serum 37 to looped/cyclic peptide (PEPSCAN-ELISA),[2],0.3
same,Binding of serum 62 to looped/cyclic peptide (PEPSCAN-ELISA),[2],0.3
same,Binding of serum London to looped/cyclic peptide (PEPSCAN-ELISA),[2],0.1
same,Binding of serum SARS-green to looped/cyclic peptide (PEPSCAN-ELISA),[2],0.1
same,Binding of serum SARS-yellow to looped/cyclic peptide (PEPSCAN-ELISA),[2],0.0
same,"Recognition of the peptide by sera of SARS-CoV infected individuals, and form (linear, looped/cyclic) in which it is recognized",[2],recognized in linear form
same,Binding of Control Serum Blood-Bank to Looped peptides,[3],0.4
same,Binding of Control serum Blood-bank to linear peptides,[3],0.5
same,Binding of Control serum LUMC to linear peptides,[3],0.5
same,Binding of Control serum LUMC to looped peptides,[3],0.2
IRGHLRMAGHPLGRC,Rabbit serum linear peptides,[1],1.2
same,Rabbit serum looped peptides,[1],0.4
ITVEELKQLLEQWNL,Recognition of the peptide by the rabbit serum,[1],recognized
KQLLEQWNLVIGFLP,Rabbit serum linear peptides,[1],0.0
same,Rabbit serum looped peptides,[1],0.1
LHEGHQTAAFRDVLV,Rabbit serum linear peptides,[1],0.5
same,Rabbit serum looped peptides,[1],0.7
RCWYLHEGHQTAAFR,Rabbit serum linear peptides,[1],0.9
same,Rabbit serum looped peptides,[1],0.4
RGHLRMAGHPLGRCD,Rabbit serum linear peptides,[1],0.0
same,Rabbit serum looped peptides,[1],0.3
SPFHPLADNKFALTC,Rabbit serum linear peptides,[1],0.4
same,Rabbit serum looped peptides,[1],0.5
TLGSITAQPVKIDNA,Binding of a rabbit serum to linear peptides,[1],0.8
same,Binding of a rabbit serum to looped peptides,[1],0.4
TVEELKQLLEQWNLV,Recognition of the peptide by the rabbit serum,[1],recognized
TVHATATIPLQASLP,Binding of a rabbit serum to linear peptides,[1],0.4
same,Binding of a rabbit serum to looped peptides,[1],0.5
TYEGNSPFHPLADNK,Rabbit serum linear peptides,[1],0.7
same,Rabbit serum looped peptides,[1],0.4
VHATATIPLQASLPF,Binding of a rabbit serum to linear peptides,[1],0.1
same,Binding of a rabbit serum to looped peptides,[1],0.6
VIGAVIIRGHLRMAG,Rabbit serum linear peptides,[1],1.5
same,Rabbit serum looped peptides,[1],0.6
VIIRGHLRMAGHPLG,Rabbit serum linear peptides,[1],0.4
same,Rabbit serum looped peptides,[1],0.6
VQQELYSPLFLIVAA,Binding of serum 1a to linear peptides of protein X4 of SARS-CoV Urbani,[2],0.7
same,Binding of serum 1a to looped/cyclic peptides of protein X4 of SARS-CoV Urbani,[2],0.8
same,Binding of serum 1b to linear peptides of protein X4 of SARS-CoV Urbani,[2],0.6
same,Binding of serum 1b to looped/cyclic peptides of protein X4 of SARS-CoV Urbani,[2],0.5
same,Binding of serum 2 to linear peptides of protein X4 of SARS-CoV Urbani,[2],0.6
same,Binding of serum 2 to looped/cyclic peptides of protein X4 of SARS-CoV Urbani,[2],0.7
same,Binding of serum 6 to linear peptides of protein X4 of SARS-CoV Urbani,[2],0.9
same,Binding of serum 6 to looped/cyclic peptides of protein X4 of SARS-CoV Urbani,[2],0.5
same,Binding of serum 37 to linear peptides of protein X4 of SARS-CoV Urbani,[2],0.7
same,Binding of serum 37 to looped/cyclic peptides of protein X4 of SARS-CoV Urbani,[2],0.7
same,Binding of serum 62 to linear peptides of protein X4 of SARS-CoV Urbani,[2],0.7
same,Binding of serum 62 to looped/cyclic peptides of protein X4 of SARS-CoV Urbani,[2],0.7
same,Binding of serum London to linear peptides of protein X4 of SARS-CoV Urbani,[2],0.9
same,Binding of serum London to looped/cyclic peptides of protein X4 of SARS-CoV Urbani,[2],0.3
same,Binding of serum SARS-green to linear peptides of protein X4 of SARS-CoV Urbani,[2],0.6
same,Binding of serum SARS-green to looped/cyclic peptides of protein X4 of SARS-CoV Urbani,[2],0.4
same,Binding of serum SARS-yellow to linear peptides of protein X4 of SARS-CoV Urbani,[2],0.5
same,Binding of serum SARS-yellow to looped/cyclic peptides of protein X4 of SARS-CoV Urbani,[2],0.8
same,"Recognition of the peptide by sera of SARS-CoV infected individuals, and form (linear, looped/cyclic) in which it is recognized",[2],recognized in looped/cyclic form
same,Binding of Control Serum Blood-Bank to Looped peptides,[3],0.7
same,Binding of Control serum Blood-bank to linear peptides,[3],0.6
same,Binding of Control serum LUMC to linear peptides,[3],0.5
same,Binding of Control serum LUMC to looped peptides,[3],0.6
VQQELYSPLFLTVAA,Rabbit serum linear peptides,[1],0.5
same,Rabbit serum looped peptides,[1],0.2
WYLHEGHQTAAFRDV,Rabbit serum linear peptides,[1],0.3
same,Rabbit serum looped peptides,[1],0.0
